Calls of active or inactive are those of the source. How the calls were made is not given here.
Molecular target: Bcl-2-related protein A1 (Homo sapiens) (UniProt Q16548)
Assay: Bfl-1/Bim complex disruptors – biochemical, multiplexed, bead-based flow cytometry, dose response (AID 1320); on percent span (inhibition): test concentration not given here
Conditions: Bim peptide-Bfl-1 binding, fluorescence

Chain of Bcl-2-related protein A1 (Homo sapiens) (Q16548 whole entry, looked up): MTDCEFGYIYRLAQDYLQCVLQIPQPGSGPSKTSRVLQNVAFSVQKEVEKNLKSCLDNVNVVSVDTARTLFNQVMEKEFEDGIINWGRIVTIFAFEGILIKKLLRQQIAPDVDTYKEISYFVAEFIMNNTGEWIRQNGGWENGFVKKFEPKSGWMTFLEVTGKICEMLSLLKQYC

Row | EC50 | SMILES
1 | inactive | Fc1ccc(/C=C2\CCCC3=C2NC(=S)NC3c2ccc(F)cc2)cc1 (centres undefined)

Same assay, conditions: Bim peptide-Bfl-1 binding, fluorescence

Row | percent span (inhibition) | SMILES
2 | inactive | COc1cc2[nH]c(=S)nc(NCCc3ccc(S(N)(=O)=O)cc3)c2cc1OC
3 | inactive | CC1CCN(C2(O)C(=O)Nc3ccc(Br)cc32)CC1 (centres undefined)
4 | inactive | O=C(/C=C/c1ccc(-c2ccccc2[N+](=O)[O-])o1)c1ccc(F)cc1
5 | inactive | Cc1cccn2c(=O)c3cc(C(N)=S)c(=N)n(CCCN4CCOCC4)c3nc12
6 | inactive | CCOC(=O)C1=C(CC)Nc2ccccc2N=C1NC(=O)c1ccc(S(=O)(=O)N2CCOCC2)cc1
7 | inactive | O=C(N/N=C/c1cccc([N+](=O)[O-])c1)c1cccs1
8 | inactive | Cc1ccc(-c2ccc(CCC(=O)O)n2NC(=O)c2cccs2)cc1
9 | inactive | N#CC(C#N)=C1C=CC=CN1/C(=C\c1ccco1)C(=O)c1ccccc1
10 | inactive | CN(C)CCNC(=O)C(=O)C1C(=O)Nc2ccccc21 (centres undefined)
11 | inactive | CCN1CCN(c2ccc(NC(=O)c3cccc4ncccc34)cc2)CC1
12 | inactive | CCOC(=O)c1c2c3c(c(Cl)ccc3[nH]c1=O)C(=O)c1ccccc1-2
13 | inactive | COC(=O)Cc1cc(=O)[nH]c(Nc2nc3ccccc3o2)n1
14 | inactive | Cc1ccc(NS(=O)(=O)c2cc(NC(=O)c3ccc4c(c3)NC(=O)CS4)ccc2C)c(C)c1
15 | inactive | O=[N+]([O-])c1ccc(-c2cn(-c3ccc(Cl)cc3)c(=S)[nH]2)cc1
16 | inactive | O=C(C[n+]1ccc(-c2nnc3n2CCC3)cc1)c1ccc(Cl)c(Cl)c1
17 | inactive | Fc1ccccc1/C=C1\CCCC2=C1NC(=S)NC2c1ccccc1F (centres undefined)
18 | inactive | Cn1c(N)c(C(=O)COC(=O)c2cc(-c3ccco3)nc3ccccc23)c(=O)n(C)c1=O
19 | inactive | COc1cc(NC(=S)NCCCO)c(OC)cc1Cl
20 | inactive | CCOc1ccccc1C(=O)NC1CC2CCCC(C1)N2C1CC1 (centres undefined)
21 | inactive | COc1ccc(C)cc1-n1c(=O)c2ccccc2c2ccccc2c1=O
22 | inactive | CC(C)(C)c1nc(NCCN2CCOCC2)c2nnn(Cc3ccccc3Cl)c2n1
23 | inactive | CCc1nnc(NC(=O)CSc2nnc(COc3ccc(C)cc3)n2-c2ccccc2)s1
24 | inactive | COc1ccc(OC)c(-n2c(=O)c3ccccc3c3ccccc3c2=O)c1
25 | inactive | OC(COc1ccc2cc(Br)ccc2c1)CN1CCOCC1 (centres undefined)

Row | percent span (inhibition) | SMILES
26 | inactive | CNC(=O)c1sc(-c2ccccn2)nc1C
27 | inactive | O=C(Nc1nccs1)c1ccc(COc2ccc(F)cc2)o1
28 | inactive | Nc1cccc(-c2cn3cccnc3n2)c1
29 | inactive | O=C(COc1ccccc1)N1CCN(c2ncnc3c2cnn3-c2ccccc2)CC1
30 | inactive | CCSc1ncc(Cl)c(C(=O)Nc2sc3c(c2C(=O)NCc2cccnc2)CCCC3)n1
31 | inactive | Cc1ccc(C(=O)NNC(=O)c2ccc3ncccc3c2)cc1
32 | inactive | CN(/N=C/C=C/c1ccccc1)C1=NS(=O)(=O)c2ccccc21
33 | inactive | CCC(=O)NC(c1ccc(C)cc1)c1cc([N+](=O)[O-])c2cccnc2c1O (centres undefined)
34 | inactive | COc1ccccc1Nc1nc(-c2c(C)nc3ncccn23)cs1
35 | inactive | O=C1c2ccccc2-c2onc3ccc(NCCCn4ccnc4)c1c23
36 | inactive | Oc1ccc(C=NCC2COc3ccccc3O2)cc1 (centres undefined)
37 | inactive | COC(=O)/C(=C/c1ccc(F)cc1)NC(C)=O
38 | inactive | Cc1cc(/C=C(/C#N)C(=O)Nc2ccc(Cl)cc2)c(C)n1-c1cccnc1
39 | inactive | CCOC(=O)c1ccc(NC(=O)CSCCC(=O)O)cc1
40 | inactive | COc1ccc(N=C2NC(=O)/C(=C\C=C\c3ccco3)S2)cc1
41 | inactive | CCCn1c(SCC(=O)Nc2ccccc2-c2ccccc2)nnc1-c1ccoc1C
42 | inactive | CN1C(=O)/C(=C/c2ccc(-c3ccccc3[N+](=O)[O-])o2)SC1=Nc1ccc(Cl)c(C(=O)O)c1
43 | inactive | CCc1nnc(NS(=O)(=O)c2ccc(N=CC3=C(O)CC(C)(C)CC3=O)cc2)s1
44 | inactive | COc1cc(C=Nc2cccc(C)c2)c(O)c([N+](=O)[O-])c1
45 | inactive | CCOc1cc(/C=N/NC(=O)c2cccs2)cc([N+](=O)[O-])c1O
46 | inactive | Cc1ccc(S(=O)(=O)N(C)CC(=O)N2CCc3ccccc32)cc1
47 | inactive | COc1ccc(Cc2c(O)nc(SC)n(C(C)=O)c2=O)cc1
48 | inactive | CCOc1ccccc1NC(=O)CSc1ccc2nnc(-c3cccnc3)n2n1
49 | inactive | CC1(C(=O)N(CC(=O)NC2CCCC2)Cc2ccco2)CC(=O)N=C2C=CC=CN21 (centres undefined)
